The source of these data is PubChem BioAssay (NCI).

Where “and” joins values, the source holds several entries; their conditions need not be identical. Equal values may be shown once.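 Cells were grown in 96-well plates and exposed to each compound for 48 hours at five concentrations; endpoints were interpolated linearly between bracketing concentrations, or set to the highest concentration if not reached. The concentration for 50% growth inhibition is given as GI50. The concentration for full growth arrest is given as TGI.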

Experiment in all cases: NCI anticancer screen, dose series, 48 h
The test system of assay [1] is SR leukemia.
Assay [2] relates to 786-0 renal.
The test system of assay [3] is SK-MEL-5 melanoma.
In assay [4] the test system is EKVX NSCLC.
Assay [5] relates to NCI-H522 lung.
The subject of assay [6] is NCI-H460 lung.
The subject of assay [7] is HL-60(TB) leukemia.
Assay [8] relates to HOP-62 NSCLC.
For assay [9], the system named is KM12 colon.
Assay [10] concerns BT-549 breast.

In the case of `COc1cc2c(cc1OC)[C@@H](C(O)c1ccccc1)NCC2` (stereo not given in full), the TGI in assay [1], in assay [2], in [3], in [4], in assay [5] and in assay [6] was more than 100 µM in each case. Moreover, the TGI in assay [7], in assay [8] and in assay [9] was more than 100 µM in each case.

Take `Cc1cccc(C)c1NC(=O)C(=O)CC(=O)CO`: the TGI in assay [1], in [2], in [3], in assay [4], in assay [5] and in assay [6] was more than 100 µM throughout. The TGI in assay [7], in assay [8] and in [9] was more than 100 µM each time.

As to `C=C1C(=O)O[C@@H]2C[C@@H](C)[C@@H]3[C@@H](OC4OC(COC(C)=O)C(O)C(O)C4O)CC(=O)[C@@]3(C)C[C@H]12` (stereo not given in full), the TGI is 7.53 µM in assay [1]; 3.13 µM in assay [10]; 0.883 µM in [2]; 4.86 µM in assay [3]; 7.6 µM in assay [4]; 0.301 µM in assay [5]. Also, the TGI in [6] came to 28.7 µM; in assay [8], 31.6 µM; in assay [9], 22.9 µM.

With `O=C(CNC(=O)c1cccc2ccccc12)Nc1ccccc1Oc1ccccc1`, the GI50 in assay [1] was 0.0825 µM; in assay [10] it was 0.41 µM; in assay [2], 0.449 µM; in [3], 0.262 µM; in assay [4] it was 0.778 µM; in assay [5], 0.151 µM. Further, the GI50 in assay [6] is 0.333 µM; in [8], 0.354 µM; in [9], 0.289 µM. Besides, the TGI is more than 10 µM in [1]; 5.43 µM in assay [10]; more than 10 µM in [2]; 4.1 µM in [3]; more than 10 µM in assay [4]; 0.612 µM in assay [5]. Also, the TGI in assay [6], in assay [8] and in assay [9] was more than 10 µM throughout.

In the case of `Cc1ccc(C2=Nc3ccccc3NC(=O)C2)cc1`, the TGI in [1], in [2], in [3], in assay [4], in assay [5] and in [6] was more than 100 µM each time. Besides, the TGI in [7], in assay [8] and in assay [9] was more than 100 µM throughout.

Consider `CC(=S)NNC(=O)c1ccncc1`, for which the TGI in assay [1], in [2], in [3], in [4], in [5] and in assay [6] was more than 100 µM in each case. The TGI in [7], in [8] and in assay [9] was more than 100 µM throughout.

For `COC1CC(OS(=O)(=O)c2ccc(C)cc2)C(OS(=O)(=O)c2ccc(C)cc2)C(COS(=O)(=O)c2ccc(C)cc2)O1` (stereo not given), the TGI was 33.6 µM in assay [1]; 4.06 µM in [2]; 25.7 µM in [3]; 24.4 µM in assay [4]; 16 µM in assay [5]; 24.7 µM in assay [6]. In addition, the TGI in assay [7] was more than 100 µM; in assay [8] it was 5.09 µM; in assay [9], more than 100 µM.

As to `O=Cc1[nH]c2ccccc2c1Br`, the TGI in [1] is 61.1 µM; in assay [2], 66.3 µM; in assay [3], 31.1 µM; in [4], more than 100 µM; in assay [5], more than 100 µM; in assay [7], 51.8 µM. The results for the TGI in assay [8] and in assay [9] were 40.6 µM and 50 µM, respectively.

`COc1cc(-c2cn(-c3ccc(Cl)cc3)c(=O)[nH]2)cc(OC)c1OC`: the GI50 in [1] was 0.034 µM; in assay [10], more than 100 µM; in assay [2], more than 100 µM; in assay [3] it was more than 100 µM; in [4] it was more than 100 µM; in assay [5] it was more than 100 µM. Further, the GI50 in [6], in assay [8] and in [9] was more than 100 µM throughout. Besides, the TGI is 39.1 µM in assay [1]; more than 100 µM in [10]; more than 100 µM in [2]; more than 100 µM in assay [3]; more than 100 µM in assay [4]; more than 100 µM in [5]. Moreover, the TGI in [6], in assay [8] and in assay [9] was more than 100 µM each time.

As to `O=C(Nc1nccs1)c1cc(C2=CC=CC([N+](=O)[O-])C=C2)nc(=S)[nH]1` (stereo not given), the TGI in [1], in assay [2], in assay [3], in assay [4], in [5] and in [6] was more than 100 µM each time. In addition, the TGI in assay [7], in assay [8] and in assay [9] was more than 100 µM each time.

On to `CO/N=C1/NC(=O)/C(=C/c2ccc3ncccc3c2)S1`, for which the GI50 in assay [1] was 14.7 µM; in [10], 9.1 µM; in [2], 23.4 µM; in [3], more than 14.1 µM; in [5], 12.3 µM; in assay [6], 9.08 µM. For the same compound, the GI50 in [7] was 13.8 µM; in assay [8], more than 22.6 µM; in assay [9], more than 25 µM. Further, the TGI in assay [1], in [10], in assay [2], in [3], in assay [5] and in [6] was more than 25 µM in each case. In addition, the TGI in assay [7], in [8] and in assay [9] was more than 25 µM throughout.

On to `Cc1nn2c(/C=C3/C(=O)Nc4ccc(Cl)cc43)c(-c3ccccc3)nc2s1`, for which the GI50 in [1] is 3.5 µM; in assay [10] it was 3.11 µM; in assay [2] it was 2.37 µM; in assay [3], 4.07 µM; in assay [5], 4.26 µM; in assay [6] it was 3.18 µM. Moreover, the GI50 was 28.8 µM in assay [7], 2.01 µM in assay [8] and 2.11 µM in [9]. Moreover, the TGI is more than 100 µM in assay [1]; 14.3 µM in assay [10]; 5.8 µM in assay [2]; 23.2 µM in assay [3]; 17.9 µM in [5]; 11.7 µM in assay [6]. Further, the TGI was more than 100 µM in assay [7], 3.99 µM in [8] and 5.88 µM in [9].

For the compound `O=C(O)c1ccc([N+](=O)[O-])c2c(=O)c3ccccc3[nH]c12`, the TGI in assay [1], in assay [2], in assay [3], in assay [5], in assay [6] and in [7] was more than 100 µM in each case. Moreover, the TGI in assay [8] and in assay [9] was more than 100 µM throughout.

Regarding `CCN(CC)C(=S)N/N=C(\C)c1ccccc1O`, the TGI is more than 100 µM in [1]; more than 100 µM in [2]; 51.9 µM in [3]; more than 100 µM in assay [4]; 33 µM in [5]; 97.4 µM in [6]. The TGI in assay [7], in assay [8] and in [9] was more than 100 µM in each case.

Consider `COc1ccc(C2=C(c3cn(C)c4ccccc34)C(=O)NC2=O)cc1OC`, for which the GI50 is 2.48 µM in [1]; 8.02 µM in [10]; 8.28 µM in [2]; 6.11 µM in [3]; 7.65 µM in [5]; 8.52 µM in [6]. For the same compound, the GI50 in [7] was 6.27 µM; in assay [8], 11.8 µM; in assay [9], 6.34 µM. The TGI is more than 25 µM in [1]; more than 25 µM in assay [10]; more than 25 µM in assay [2]; more than 22.3 µM in assay [3]; more than 21.9 µM in assay [5]; more than 25 µM in assay [6]. The TGI in assay [7] was 17.2 µM; in assay [8], more than 25 µM; in assay [9] it was more than 25 µM.

Consider `CCOC(=O)C(Cc1c[nH]c2cc([N+](=O)[O-])ccc12)(NC(C)=O)C(=O)OCC`, for which the GI50 is 26.3 µM in assay [1]; 64.9 µM and 75 µM in assay [10]; 175 µM in assay [2]; 59 µM in assay [4]; 161 µM in assay [8]; more than 1000 µM in assay [9]. In addition, the TGI in assay [1] is 446 µM; in assay [10], more than 682 µM; in assay [2] it was more than 754 µM; in [4], more than 614 µM; in [5], more than 1000 µM; in assay [6], more than 1000 µM. Further, the TGI is 461 µM in assay [8] and more than 1000 µM in assay [9].

On to `CNS(=O)(=O)NN(C)S(=O)(=O)c1ccc(Br)cc1`, for which the TGI in assay [1], in [2], in assay [3], in [4], in assay [5] and in [7] was more than 100 µM throughout. Further, the TGI in [8] and in [9] was more than 100 µM each time.

As for `CN(C)CC#Cc1cccc(C(=O)c2cnn(-c3ccc(F)cc3)c2N)c1`, the GI50 in [1] is more than 18.2 µM; in assay [10], more than 25 µM; in assay [2], more than 25 µM; in [3], 16.1 µM; in assay [5] it was more than 25 µM; in assay [6], more than 25 µM. Further, the GI50 in assay [7], in [8] and in assay [9] was more than 25 µM in each case. For the same compound, the TGI in [1], in [10], in assay [2], in [3], in [5] and in assay [6] was more than 25 µM throughout. In addition, the TGI in assay [7], in [8] and in assay [9] was more than 25 µM in each case.

In the case of `COC1=C(C(=O)OC(C)(C)C)[C@]2(C)C(C(=O)OC(C)(C)C)C(OC)=C(C(=O)OC(C)(C)C)[C@]2(C)C1C(=O)OC(C)(C)C` (stereo not given in full), the TGI in assay [1], in assay [2], in assay [3], in assay [4], in assay [5] and in [6] was more than 100 µM throughout. In addition, the TGI in [7], in assay [8] and in [9] was more than 100 µM in each case.

For the compound `Cc1cc(-c2nc3ccc(O)cc3s2)ccc1N`, the GI50 in [1] is 22 µM; in assay [10], 14.2 µM; in assay [2] it was 29.2 µM; in assay [3], 52.1 µM; in assay [4] it was 4.07 µM; in [5] it was 30 µM. The GI50 in [6] is 38.9 µM; in [8] it was 31.1 µM; in assay [9], 57.9 µM. Besides, the TGI in assay [1] is more than 100 µM; in [10], 33.9 µM; in assay [2] it was more than 100 µM; in assay [3] it was more than 100 µM; in [4], 58.3 µM; in [5] it was more than 100 µM. In addition, the TGI in assay [6], in assay [8] and in assay [9] was more than 100 µM each time.

`O=C(Nc1ccncc1)C(=O)c1cn(S(=O)(=O)c2ccccc2F)c2ccccc12`: the GI50 in [10] is 4.41 µM; in assay [2] it was 4.95 µM; in assay [3], 0.693 µM; in assay [4], 3.72 µM; in assay [5] it was 0.371 µM; in assay [6] it was 6.75 µM. The GI50 in assay [7] is 0.576 µM; in assay [8], 1.96 µM; in assay [9] it was 0.837 µM. The TGI is 54.8 µM in assay [10]; 40.9 µM in assay [2]; 16.2 µM in assay [3]; more than 100 µM in [4]; 4.09 µM in assay [5]; more than 100 µM in assay [6]. Also, the TGI in assay [8] is 34.3 µM; in assay [9] it was more than 100 µM.

Take `Nc1ncc(-c2ccc(C(F)(F)F)cc2)c(NC2CCCCCC2)n1`: the GI50 is 13.2 µM in assay [1]; 34.9 µM in [10]; 32.2 µM in [2]; 12.3 µM in assay [3]; 27.7 µM in [5]; 42.7 µM in assay [6]. The GI50 in [7] is 21.4 µM; in [8], 54.7 µM; in assay [9] it was 37.2 µM. Also, the TGI was 57.2 µM in [1]; more than 100 µM in [10]; more than 100 µM in assay [2]; 35 µM in assay [3]; more than 100 µM in assay [5]; more than 100 µM in assay [6]. The values for the TGI in [7], in [8] and in [9] were 63.6 µM, more than 100 µM and more than 100 µM, respectively.
